# Earlier results, collected in US20050065134A1, “2-aklylidene-19-nor-vitamin D derivatives for the treatment of anorexia or low bone mass in females exhibiting aggressive athletic behavior” (Pfizer Inc, priority 2003, published 2005).
# Where two headings read alike, the source gives them in different places.
# System: intestinal calcium transport
# Conditions: 7 days, rats
Structure (SMILES),change in intestinal calcium transport (in words) (130 and 260 pmol/day),"change in intestinal calcium transport (in words) (260 pmol/day, only dose tested)"
"C=C1[C@H](O)CC(=C/C=C2\CCC[C@]3(C)[C@@H]([C@H](C)CCCC(C)(C)O)CC[C@@H]23)C[C@H]1O [2-Methylene-19-Nor-1,25-(OH)2D3, 1α,25-dihydroxy-2-methylene-19-nor-vitamin D3]",no intestinal calcium transport activity,–
"C=C1[C@H](O)CC(=C/C=C2\CCC[C@]3(C)[C@@H]([C@@H](C)CCCC(C)(C)O)CC[C@@H]23)C[C@H]1O [2-Methylene-19-Nor-20S-1,25-(OH)2D3, (20S)-1α,25-dihydroxy-2-methylene-19-nor-vitamin D3]",no significant change,–
"C=C1/C(=C\C=C2/CCC[C@]3(C)[C@@H]([C@H](C)CCCC(C)(C)O)CC[C@@H]23)C[C@@H](O)C[C@@H]1O [1,25-(OH)2D3, 1,25-dihydroxyvitamin D3, reference compound]",–,expected elevation of intestinal calcium transport
